This is an account of results in US6797720B2, “1,3,4-oxadiazoline derivative and an agent comprising its derivative as active ingredient” (ONO Pharmaceutical Co., Ltd., priority 1999, dated 2004).

Common to all, as to format: biochemical
In one test the target is T1, cathepsin K (Homo sapiens, UniProt P43235).
T1 sequence (P43235 115-329): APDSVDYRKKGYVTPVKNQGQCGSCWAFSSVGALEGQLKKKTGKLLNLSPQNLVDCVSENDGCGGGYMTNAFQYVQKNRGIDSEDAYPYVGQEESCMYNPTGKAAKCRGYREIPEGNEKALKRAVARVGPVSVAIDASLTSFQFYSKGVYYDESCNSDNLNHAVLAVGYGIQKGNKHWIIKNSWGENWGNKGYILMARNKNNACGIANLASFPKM
Put plainly: Measurement of cathepsin K inhibitory activity. Particulars: Dixon plot, pH 5.5, 37° C. Here is the method:
(i) Measurement of Cathepsin K Inhibitory Activity
Cathepsin K enzyme reaction buffer (50 mmol/L 2-(N-morpholino)ethanesulfonate, 2 mmol/L ethylenediamine tetraacetate (EDTA) and 4 mmol/L dithiothreitol (DTT) were mixed to adjust to pH 5.5) (65 μL), cysteine protease inhibitor solution (5 μL) of several concentrations, synthesized substrate (t-butyloxycarbonyl-L-alanyl-glycyl-L-prolyl-L-arginine-4-me thyl-chromanyl-7-amide) solution (20 μL) of several concentrations and cathepsin K enzyme solution (10 μL) were mixed and the increase of fluorescence intensity when reacted at 37° C. was measured (λex(excitation wavelength)355 nm, λem (fluorescence wavelength) 460 nm). As to the substrate and the compound of the present invention, enzyme reactions were carried out in combination of several appropriate concentrations, Dixon plotting was prepared, to define the absolute value of X-coordinate of the intersection point of the graph as Ki value.

The next test deals with cathepsin B (Homo sapiens, UniProt P07858). Put plainly: Measurement of cathepsin B inhibitory activity. As for the experimental part:
(ii) Measurement of Cathepsin B Inhibitory Activity
Synthesized substrate of several concentrations (carbobenzoxy-L-arginyl-L-arginine-4-methyl-chromanyl-7-amide or carbobenzoxy-L-phenylalanyl-L-arginine-4-methyl-chromanyl-7-amide) solution (10 μL), cysteine protease inhibitor solution of several concentrations (10 μL), cathepsin B enzyme reaction buffer (mixture of 400 mmol/L in acetic acid, 4 mmol/L EDTA, 8 mmol/L DDT to adjust to pH 5.5) 70 μL and cathepsin B enzyme solution 10 μL were mixed and the increase of fluorescence intensity was measured (λex=355 nm, λem=460 nm) when reacted at 37° C.

The next test deals with cathepsin S (Homo sapiens, UniProt P25774). Put plainly: Measurement of cathepsin S inhibitory activity. As for the experimental part:
(iii) Measurement of Cathepsin S Inhibitory Activity
Synthesized substrate of several concentrations (carbobenzoxy-L-leucyl-L-leucyl-L-arguinine-4-methyl-chroman yl-7-amide) solution (10 μL), cysteine protease inhibitor solution (5 μL) of several concentrations, cathepsin S enzyme reaction buffer (100 mmol/L sodium phosphate, 2 mmol/L EDTA, 2 mmol/L DTT were mixed to adjust to pH 6.5) (75 μL) and cathepsin S enzyme solution (10 μL) were mixed and the increase of fluorescence intensity was measured (λex=355 nm, λem=460 nm) when reacted at 37° C.

In the next test the target is cathepsin L (Homo sapiens, UniProt P07711). The experiment in a line: Measurement of cathepsin L inhibitory activity. Here is the method: (iv) Measurement of Cathepsin L Inhibitory Activity
Synthesized substrate of several concentrations (carbobenzoxy-L-phenylalanyl-L-arguine-4-methyl-chromanyl-7-amide or L-prolyl-L-phenylalanyl-L-arguinine-4-methyl-chromanyl-7-amide) solution (5 μL), cysteine protease inhibitor solution (5 μL) of several concentrations, cathepsin L enzyme reaction buffer (400 mmol/L acetic acid, 4 mmol/L EDTA, 8 mmol/L DTT were mixed to adjust to pH 5.5) 80 μL and cathepsin L enzyme solution (10 μL) were mixed and the increase of fluorescence intensity was measured (λex=355 nm, λem=460 nm) when reacted at 37° C.

The structures appear in SMILES notation.

cathepsin L, sequence (P07711 114-333, species assumed): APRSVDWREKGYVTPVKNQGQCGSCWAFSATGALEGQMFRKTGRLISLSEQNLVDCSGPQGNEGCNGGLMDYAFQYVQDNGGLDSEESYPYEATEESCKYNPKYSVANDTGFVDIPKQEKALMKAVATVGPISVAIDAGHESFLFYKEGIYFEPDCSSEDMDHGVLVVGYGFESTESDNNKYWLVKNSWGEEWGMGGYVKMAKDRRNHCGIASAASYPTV
cathepsin S, sequence (P25774 115-331, species assumed): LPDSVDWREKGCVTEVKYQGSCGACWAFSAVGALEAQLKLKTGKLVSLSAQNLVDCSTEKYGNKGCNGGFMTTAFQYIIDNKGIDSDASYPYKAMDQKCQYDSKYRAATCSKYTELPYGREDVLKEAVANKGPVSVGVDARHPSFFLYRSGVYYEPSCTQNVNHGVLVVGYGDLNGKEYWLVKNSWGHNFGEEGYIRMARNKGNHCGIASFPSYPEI

Consider `CC(C)C[C@H](NC(=O)OCc1ccccc1)C(=O)N[C@@H](CC(C)C)C(=O)c1n[nH]c(=O)o1` [Example 1 (1), (2S)-N-[(2S)-4-methyl-1-oxo-1-(2-oxo-1,3,4-oxadiazolin-5-yl)-2-pentyl]-4-methyl-2-(benzyloxycarbonylamino)pentanamide], for which the Ki at cathepsin K is 13 nM. The inhibition at 1 µM is 97% against cathepsin B, 99% against cathepsin S and 100% against cathepsin L.

`CC(C)C[C@H](NC(=O)[C@@H]1CCCC[C@@H]1NC(=O)c1ccccc1)C(=O)c1n[nH]c(=O)o1` [example 1]: the Ki at cathepsin K was found to be 86 nM.
